Measurements: ChEMBL document CHEMBL2375302, “Synthesis, antimicrobial, antiquorum-sensing, antitumor and cytotoxic activities of new series of fused [1,3,4]thiadiazoles” (Eur J Med Chem, 2013)
≈ marks a conversion by molar mass, not a printed value.

How the values were obtained:
[1] = Toxicity against brine shrimp larvae assessed as mortality at 100 ug/mL after 24 hrs by binocular microscopic analysis relative to control; assay type: organism-based; settings: artemia salina, in vivo
[2] = test system: Chromobacterium violaceum; assay: Antiquorum-sensing activity against Chromobacterium violaceum ATCC 12472 after 48 hrs; assay type: functional
[3] = (§1) Toxicity against brine shrimp larvae assessed as mortality after 24 hrs by binocular microscopic analysis; assay type: organism-based; settings: artemia salina, in vivo
[4] = test system: Artemia salina; assay: as §1; assay type: organism-based; settings: in vivo, 24 h
[5] = Toxicity against brine shrimp larvae assessed as mortality at 1000 ug/mL after 24 hrs by binocular microscopic analysis relative to control; assay type: organism-based; settings: artemia salina, in vivo
[6] = test system: Aspergillus fumigatus; assay: Antifungal activity against Aspergillus fumigatus Af293 at 5 mg/mL after 48 hrs; assay type: functional; settings: Af293, 48 h, read-out: DIZ
[7] = test system: Candida albicans; assay: Antifungal activity against Candida albicans at 5 mg/mL after 48 hrs; assay type: functional; settings: read-out: DIZ
[8] = test system: Escherichia coli; assay: Antibacterial activity against Escherichia coli at 5 mg/mL after 24 hrs; assay type: functional; settings: read-out: DIZ
[9] = test system: Bacillus cereus; assay: Antibacterial activity against Bacillus cereus at 5 mg/mL after 24 hrs; assay type: functional; settings: read-out: DIZ
[10] = Toxicity against brine shrimp larvae assessed as mortality at 500 ug/mL after 24 hrs by binocular microscopic analysis relative to control; assay type: organism-based; settings: artemia salina, in vivo
[11] = test system: Aspergillus flavus; assay: Antifungal activity against Aspergillus flavus 3372 at 5 mg/mL after 48 hrs; assay type: functional; settings: Aspergillus flavus, 3372, 48 h; read-out: DIZ
[12] = test system: Staphylococcus aureus; assay: Antibacterial activity against Staphylococcus aureus at 5 mg/mL after 24 hrs; assay type: functional; settings: read-out: DIZ
[13] = Toxicity against brine shrimp larvae assessed as mortality at 10 ug/mL after 24 hrs by binocular microscopic analysis relative to control; assay type: organism-based; settings: artemia salina, in vivo

SMILES | mortality at 24 h, 100 ug/mL [1] [%] | diameter of the inhibition zone (DIZ) [2] [mm] | LC50 at 24 h [3] [µg/mL] | LC90 [4] [µg/mL] | mortality at 24 h, 1000 ug/mL [5] [%] | zone of inhibition at 5000 µg/mL [6] [mm] | zone of inhibition at 5000 µg/mL [7] [mm] | zone of inhibition at 5000 µg/mL [8] [mm] | zone of inhibition at 5000 µg/mL [9] [mm] | mortality at 24 h, 500 ug/mL [10] [%] | zone of inhibition at 5000 µg/mL [11] [mm] | zone of inhibition at 5000 µg/mL [12] [mm] | mortality at 24 h, 10 ug/mL [13] [%]
CN(C)c1ccc(C2C(C#N)C(=O)N=C3SC(S(N)(=O)=O)=NN32)cc1 (stereo not given) | 86.6 | 6 | 400 (≈ 1060 µM) | 719.42 (≈ 1900 µM) | 100 | 8 | 32 | < 2 | 6 | 96.6 | < 2 | 7 | 70
NS(=O)(=O)C1=NN2C(=O)c3ccccc3NC(c3ccsc3)/N=C\2S1 (stereo not given) | 66.6 | 6 | 477 (≈ 1210 µM) | 858.77 (≈ 2180 µM) | 86.6 | < 2 | < 2 | < 2 | < 2 | 76.6 | < 2 | < 2 | 46.6
N#CC1C(=O)N=C2SC(S(N)(=O)=O)=NN2C1c1ccc(Cl)cc1 (stereo not given) | 36.6 | 11 | 660 (≈ 1780 µM) | 1187.33 (≈ 3210 µM) | 66.6 | 6 | 8 | < 2 | < 2 | 50 | < 2 | < 2 | 23.3
COc1ccc2c(c1)CCC1=C2N=C2SC(S(N)(=O)=O)=NN2C1c1ccc(Cl)cc1 (stereo not given) | 66.6 | <2 | 438 (≈ 951 µM) | 788.78 (≈ 1710 µM) | 96.6 | < 2 | < 2 | < 2 | < 2 | 80 | < 2 | < 2 | 50
NS(=O)(=O)C1=NN2CC(=O)N=C2S1 | – | <2 | – | – | – | < 2 | 5 | < 2 | < 2 | – | < 2 | < 2 | –
COc1ccc(/N=N/c2c(N)n3nc(S(N)(=O)=O)sc3nc2=O)cc1 | 86.6 | 11 | 404 (≈ 1060 µM) | 726.97 (≈ 1910 µM) | 100 | < 2 | 6 | 5 | 3 | 93.3 | 5 | 8 | 73.3
O=c1[nH]cc(F)c(=O)[nH]1 [FLUOROURACIL] | 83.3 | – | 409 (≈ 3150 µM) | 736.49 (≈ 5660 µM) | 100 | – | – | – | – | 90 | – | – | 63.3
CC1(C)S[C@@H]2[C@H](NC(=O)[C@H](N)c3ccccc3)C(=O)N2[C@H]1C(=O)O [AMPICILLIN] | – | – | – | – | – | – | – | 23 | 3.5 | – | – | 14 | –
Nc1c(/N=N/c2ccc(Br)cc2)c(=O)nc2sc(S(N)(=O)=O)nn12 | 66.6 | 12 | 460 (≈ 1070 µM) | 827.2 (≈ 1920 µM) | 90 | 4 | 6 | < 2 | 5 | 80 | < 2 | 9 | 46.6
CCOC(=O)C1C(=O)N=C2SC(S(N)(=O)=O)=NN2C1c1ccc(OC)c(OC)c1 (stereo not given) | 70 | 8 | 442 (≈ 1000 µM) | 796.46 (≈ 1800 µM) | 93.3 | < 2 | 4 | < 2 | 7 | 83.3 | < 2 | 8 | 50
OC(Cn1cncn1)(Cn1cncn1)c1ccc(F)cc1F [FLUCONAZOLE] | – | – | – | – | – | < 2 | 22 | – | – | – | < 2 | – | –
